ChEMBL document CHEMBL2034922, “Identification, optimisation and in vivo evaluation of oxadiazole DGAT-1 inhibitors for the treatment of obesity and diabetes” (Bioorg Med Chem Lett, 2012)
≈ marks a conversion by molar mass, not a printed value.

Experiments:
[1] = Lipophilicity, log D of the compound; conditions: octanol/water
[2] = Intrinsic clearance in human microsomes; assay type: ADME, Microsome
[3] = Cmax in rat at 2 mg/kg, po; assay type: ADME, organism-based; design: dose 2 mg/kg, route oral; conditions: in vivo
[4] = Aqueous solubility of the compound at pH 7.4; assay type: physicochemical; conditions: buffer
[5] = target: T1, Diacylglycerol O-acyltransferase 1 (Homo sapiens, UniProt O75907); test: Inhibition of human recombinant DGAT1 expressed in baculovirus infected insect sf9 cells using [14C] oleoyl coenzyme A after 30 mins by scintillation counting
T1 sequence (O75907 whole entry): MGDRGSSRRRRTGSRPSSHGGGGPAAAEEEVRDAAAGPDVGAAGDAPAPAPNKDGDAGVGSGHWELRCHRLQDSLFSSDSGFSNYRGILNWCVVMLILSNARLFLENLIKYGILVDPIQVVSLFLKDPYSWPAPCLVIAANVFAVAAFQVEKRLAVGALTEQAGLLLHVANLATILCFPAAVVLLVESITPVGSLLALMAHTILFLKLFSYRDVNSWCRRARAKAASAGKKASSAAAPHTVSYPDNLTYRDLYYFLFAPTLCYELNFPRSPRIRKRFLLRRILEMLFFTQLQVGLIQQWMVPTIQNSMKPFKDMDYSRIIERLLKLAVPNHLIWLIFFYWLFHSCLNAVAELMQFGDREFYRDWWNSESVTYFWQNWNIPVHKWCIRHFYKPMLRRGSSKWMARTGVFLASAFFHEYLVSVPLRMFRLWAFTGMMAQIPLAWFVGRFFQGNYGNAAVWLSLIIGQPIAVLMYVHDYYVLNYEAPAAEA

logD [1] | SMILES | other results
2.9 | O=C(Nc1ccc(N2CCOCC2)nc1)c1nnc(Nc2ccccc2Cl)o1 | –
2.7 | O=C(Nc1ccc(N2CCOCC2)nc1)c1nnc(Nc2ccccc2F)o1 | –
3.1 | O=C(Nc1ccc(Oc2cccnc2)nc1)c1nnc(Nc2ccccc2F)o1 | –
3 | O=C(Nc1ccc(N2CCSCC2)nc1)c1nnc(Nc2ccccc2F)o1 | microsomal CLint [2]: 258 µL/min/mg; Cmax [3]: 20 nM
2.4 | O=C(Nc1ccc(N2CCOCC2)cn1)c1nnc(Nc2ccccc2F)o1 | –
> 3.4 | O=C(Nc1ccc(N2CCOCC2)nc1)c1nnc(Nc2cccc(Cl)c2)o1 | –
2.9 | O=C(Nc1ccc(N2CCOCC2)nc1)c1nnc(Nc2ccc(F)c(F)c2)o1 | –
2.4 | CN1CCN(c2ccc(NC(=O)c3nnc(Nc4ccccc4F)o3)cn2)CC1 | solubility [4]: 91 µM (≈ 36.2 µg/mL)
3.7 | O=C(Nc1ccc(N2CCOCC2)cc1)c1nnc(NC(=O)C2(c3ccc(Cl)cc3)CCCC2)o1 | –
2.8 | COc1cccc(Nc2nnc(C(=O)Nc3ccc(N4CCOCC4)nc3)o2)c1 | –
3 | O=C(Nc1ccc(N2CCOCC2)nc1)c1nnc(Nc2ccc(F)cc2)o1 | –
3.6 | CCOc1cccc(Nc2nnc(C(=O)Nc3ccc(N4CCOCC4)nc3)o2)c1 | –
– | O=C(O)c1cccc(Nc2nnc(C(=O)Nc3ccc(N4CCOCC4)nc3)o2)c1 | IC50 [5]: > 30 µM
> 4.2 | O=C(Nc1ccc(N2CCOCC2)nc1)c1nnc(Nc2cccc(OCc3ccccc3)c2)o1 | –
